We go through 4 compounds from patent US20240382601A1, “EMULSION FORMULATION HAVING HIGH FORMULATION STABILITY AND MANUFACTURING METHOD THEREOF” (AMOREPACIFIC CORPORATION, priority 2023, published 2024).

Data set [1] is described as follows: HLB values of surfactants. The format is physicochemical.
Text: (§1) Among the above ingredients, the logP values of dipropylene glycol, diethoxyethyl 5 succinate.
Data set [2] is described as follows: logP values of complex ingredients.
Text: as §1

Compound Polysorbate 20 showed an HLB in data set [1] of 17.

As usually defined, the logP is a log measure of how a compound divides between an organic and an aqueous phase. Read a low logP as lower lipophilicity. Turning to `CCCCCCCCCCCCOCCOCCO` [Diethylene glycol lauryl ether], the logP in data set [2] is 4. In turn, Polysorbate 60 had an HLB in data set [1] of 15. The compound `CCOCCOC(=O)CCC(=O)OCCOCC` [Diethoxyethyl succinate] had a logP in data set [2] of 0.25.
